Response vs control in vivo and LD50 data for 13 molecules are collected here from patent publication US4382142A, “Thiadiazole derivatives and process for preparing same” (Kowa Co., Ltd., priority 1978, dated 1983).

Each structure is given as a SMILES string. Structures can show the parent of a compound that is named as a salt. Where two headings read alike, the source gives them in different places.

One data set relates to P388 leukemia. The data set can be described thus: Antitumor test: survival of CDF1 mice inoculated intraperitoneally with P388 leukemia. It is filed as in vivo. Conditions: Mus musculus, ip, i.p., 24 hours and 5 days after inoculation, 10^6 P388 i.p., read-out: Survival Effect (survival days of treated relative to control animals); for response vs control in vivo at 200 mg/kg: 200 mg/kg/day; for response vs control in vivo at 400 mg/kg: 400 mg/kg/day. As for the experimental part: Each experimental group was composed of six CDF1 mice. The mice were
inoculated intraperitoneally with 10^6 P388 leukemia, and the test
compounds dissolved in a physiological salt solution were administered
intraperitoneally to the animals 24 hours and 5 days, respectively, after
the inoculation. The survival effect of each of the compounds was
expressed by the percentage of the survival days of the treated animals i
each group relative to those of the control animals.

A short description of data set [1]: Acute toxicity (LD50, Litchfield-Wilcoxon method) after intraperitoneal injection in ddy mice. As to conditions: mouse, in vivo, ip. The protocol: The median lethal dose (LD50) of each of the test compounds was
determined by the LitchfieldWilcoxon method after the intraperitoneal
injection of the compound into ddy mice.

[2] abbreviates: intraperitoneal, ddy mice, read-out: Acute Toxicity LD50.

`CC(C)CC(N)C(=O)Nc1nncs1` (stereo not drawn) [A, 2DL-Leucylamino-1,3,4-thiadiazole.hydrochloride]: in the data set with P388 leukemia, the response vs control in vivo at 200 mg/kg stood at 141% and the response vs control in vivo at 400 mg/kg stood at 154%. The median lethal dose (LD50) in data set [1] is more than 1600 mg/kg.
The matching figures for `CC(C)C[C@H](N)C(=O)Nc1nncs1` [B, 2L-Leucylamino-1,3,4-thiadiazole.hydrochloride]: 144%, 161% and more than 500 mg/kg.
As for `CC(C)C[C@@H](N)C(=O)Nc1nncs1` [C, 2D-Leucylamino-1,3,4-thiadiazole.hydrochloride], in the data set on P388 leukemia, the response vs control in vivo at 200 mg/kg was 116% and the response vs control in vivo at 400 mg/kg amounted to 157%. The molecule also displayed an LD50 in data set [1] of more than 500 mg/kg.
For `CCC(C)C(N)C(=O)Nc1nncs1` (stereo not drawn) [D, 2DL-Isoleucylamino-1,3,4-thiadiazole.dihydrochloride], the response vs control in vivo at 200 mg/kg in the data set on P388 leukemia came to 157%. The molecule also gave an LD50 in data set [1] of 357 mg/kg.
On to `CC(C)C(N)C(=O)Nc1nncs1` (stereo not drawn) [E, 2DL-Valylamino-1,3,4-thiadiazole.hydrochloride], for which, in the data set on P388 leukemia, the response vs control in vivo at 200 mg/kg turned out to be 143% and the response vs control in vivo at 400 mg/kg amounted to 155%. Moreover, in data set [1], the LD50 is more than 1600 mg/kg.
On to `CC(C)[C@H](N)C(=O)Nc1nncs1` [F, 2L-Valylamino-1,3,4-thiadiazole.hydrochloride], for which, in the data set with P388 leukemia, the response vs control in vivo at 200 mg/kg was determined as 183% and the response vs control in vivo at 400 mg/kg amounted to 190%. This molecule also yielded an LD50 in data set [1] of more than 500 mg/kg.
The like results for `CC(C)[C@@H](N)C(=O)Nc1nncs1` [G, 2D-Valylamino-1,3,4-thiadiazole.hydrochloride] were, in that order, 93%, 102% and more than 500 mg/kg.
With `CSCCC(N)C(=O)Nc1nncs1` (stereo not drawn) [H, 2DL-Methionylamino-1,3,4-thiadiazole.hydrochloride], in the data set with P388 leukemia, the response vs control in vivo at 200 mg/kg is 121% and the response vs control in vivo at 400 mg/kg came out at 124%. For the same molecule, the LD50 in data set [1] is more than 1600 mg/kg.
With `NC(C(=O)Nc1nncs1)c1ccccc1` (stereo not drawn) [I, 2Dl-Phenylglycylamino-1,3,4-thiadiazole.hydrobromide], in the data set with P388 leukemia, the response vs control in vivo at 200 mg/kg turned out to be 125% and the response vs control in vivo at 400 mg/kg is 146%. This molecule also returned an LD50 in data set [1] of more than 1600 mg/kg.
As to `NC1(C(=O)Nc2nncs2)CCCC1` [J, 2Cycloleucylamino-1,3,4-thiadiazole.hydrochloride], in the data set on P388 leukemia (100 mg/kg/day), the response vs control in vivo at 100 mg/kg was determined as 153%. This molecule showed a 50% lethal dose (LD50) in data set [1] of 165 mg/kg.
With `N[C@@H](CC(=O)O)C(=O)Nc1nncs1` [K, 2L-Aspartylamino-1,3,4-thiadiazole.monohydrate], the response vs control in vivo at 460 mg/kg in the data set with P388 leukemia (460 mg/kg/day) was determined as 116%. Further, the response vs control in vivo at 600 mg/kg in the data set on P388 leukemia (600 mg/kg/day) was found to be 119%. Besides, the median lethal dose (LD50) in data set [1] was more than 1600 mg/kg.
Take `N[C@@H](Cc1c[nH]c2ccccc12)C(=O)Nc1nncs1` [L, 2L-Tryptophylamino-1,3,4-thiadiazole.hydrochloride]: in the data set with P388 leukemia, the response vs control in vivo at 200 mg/kg came to 143% and the response vs control in vivo at 400 mg/kg was found to be 151%. The LD50 in data set [1] (setting [2]) was found to be 1200 mg/kg.
As for `N[C@@H](Cc1ccccc1)C(=O)Nc1nncs1` [M, 2L-Phenylalanylamino-1,3,4-thiadiazole.hydrobromide], in the data set with P388 leukemia, the response vs control in vivo at 200 mg/kg was 145% and the response vs control in vivo at 400 mg/kg stood at 156%. Further, the LD50 in data set [1] (setting [2]) amounted to 1200 mg/kg.
